Source: ChEMBL document CHEMBL1201862, “PubChem BioAssay data set” (2004)
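Step 1: Grow cells in 96-well plates. Step 2: Expose to compound for 48 hours at 5 concentrations. Step 3: Interpolate endpoints linearly; if unreached, use highest concentration. GI50 is the concentration that inhibits growth by half.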 The source made the active and inactive calls. No stated cut-off is given here; in the data, active = GI50 up to about 1.1 µM and inactive = higher. Where a SMILES comes first, the peptide text is derived from it. The star is where a group is joined. Boc = CC(C)(C)OC(=O)*

Columns and labels:
Experiment in all cases: NCI tumour cell line growth inhibition, 48 h
SF-295 = tested on: SF-295
M14 = tested on: M14
OVCAR-3 = tested on: OVCAR-3
A498 = tested on: A498
NCI-H23 = tested on: NCI-H23
SNB-75 = tested on: SNB-75
K562 = tested on: K562
NCI-H226 = tested on: NCI-H226
OVCAR-4 = tested on: OVCAR-4
EKVX = tested on: EKVX
SN12C = tested on: SN12C
RXF 393 = tested on: RXF 393
MOLT-4 = tested on: MOLT-4
UACC-257 = tested on: UACC-257
MDA-N = tested on: MDA-N
SNB-19 = tested on: SNB-19
CCRF-CEM = tested on: CCRF-CEM
SF-268 = tested on: SF-268
HOP-92 = tested on: HOP-92
LOX IMVI = tested on: LOX IMVI

SMILES | GI50 (SF-295) | GI50 (M14) | GI50 (OVCAR-3) | GI50 (A498) | GI50 (NCI-H23) | GI50 (SNB-75) | GI50 (K562) | GI50 (NCI-H226) | GI50 (OVCAR-4) | GI50 (EKVX) | GI50 (SN12C) | GI50 (RXF 393) | GI50 (MOLT-4) | GI50 (UACC-257) | GI50 (MDA-N) | GI50 (SNB-19) | GI50 (CCRF-CEM) | GI50 (SF-268) | GI50 (HOP-92) | GI50 (LOX IMVI)
O=C(O)Cc1ccc(Oc2nc3ccccc3nc2-c2cccs2)cc1 | 42.6 µM (inactive) | 66.4 µM (inactive) | 48.4 µM (inactive) | 22.1 µM (inactive) | 55.8 µM (inactive) | 27.2 µM (inactive) | 99.3 µM (inactive) | 52.4 µM (inactive) | 51.1 µM (inactive) | 32.4 µM (inactive) | 84.9 µM (inactive) | 17.4 µM (inactive) | 50 µM (inactive) | > 100 µM (inactive) | 82.2 µM (inactive) | 82.8 µM (inactive) | 49.3 µM (inactive) | 66.4 µM (inactive) | 34.3 µM (inactive) | 40.6 µM (inactive)
CNC1=C(C)C(=O)C(O)=C([C@H](C)CCC=C(C)C)C1=O | 11.4 µM (inactive) | 22.2 µM (inactive) | 11.7 µM (inactive) | 19.5 µM (inactive) | 20 µM (inactive) | 18 µM (inactive) | 29 µM (inactive) | 22.1 µM (inactive) | 11.7 µM (inactive) | 2.33 µM (inactive) | 22.8 µM (inactive) | 30.7 µM (inactive) | 6.18 µM (inactive) | 32.7 µM (inactive) | 29.6 µM (inactive) | 31.8 µM (inactive) | 3.95 µM (inactive) | 19.1 µM (inactive) | 33.1 µM (inactive) | 14.7 µM (inactive)
CCOC(=O)[C@@]12C[C@](/C=C/OC)(O[Si](C)(C)C)[C@@]13c1cc(OC)c(OC)cc1CCN3C(=O)C2O (some centres not stated) | > 100 µM (inactive) | > 100 µM (inactive) | > 100 µM (inactive) | > 100 µM (inactive) | > 100 µM (inactive) | 47.6 µM (inactive) | > 100 µM (inactive) | > 100 µM (inactive) | > 100 µM (inactive) | > 100 µM (inactive) | > 100 µM (inactive) | > 100 µM (inactive) | > 100 µM (inactive) | > 100 µM (inactive) | > 100 µM (inactive) | > 100 µM (inactive) | > 100 µM (inactive) | > 100 µM (inactive) | > 100 µM (inactive) | > 100 µM (inactive)
COC(=O)N1CC[C@@H]2CCC=C(c3cccc4c3OCO4)[C@@H]21 | > 100 µM (inactive) | > 100 µM (inactive) | > 100 µM (inactive) | > 100 µM (inactive) | > 100 µM (inactive) | 17.7 µM (inactive) | 42.8 µM (inactive) | > 100 µM (inactive) | 45.4 µM (inactive) | 79.4 µM (inactive) | > 100 µM (inactive) | > 100 µM (inactive) | 26.1 µM (inactive) | 78.5 µM (inactive) | > 100 µM (inactive) | 74.3 µM (inactive) | 49.3 µM (inactive) | > 100 µM (inactive) | 22 µM (inactive) | > 100 µM (inactive)
N#CCCN(CCCN(C(=O)N(c1ccccc1)c1ccccc1)c1ccccc1)C(=O)Nc1ccccc1 | 76.6 µM (inactive) | > 100 µM (inactive) | > 100 µM (inactive) | > 100 µM (inactive) | > 100 µM (inactive) | 14 µM (inactive) | 28.6 µM (inactive) | > 100 µM (inactive) | 95.1 µM (inactive) | 35.6 µM (inactive) | – | > 100 µM (inactive) | 11.5 µM (inactive) | 74 µM (inactive) | > 100 µM (inactive) | > 100 µM (inactive) | 15.9 µM (inactive) | > 100 µM (inactive) | > 100 µM (inactive) | > 100 µM (inactive)
Oc1ccc(Cl)cc1/C=N/c1cnc2ccccc2c1 | 36.7 µM (inactive) | 16.9 µM (inactive) | 14.5 µM (inactive) | > 100 µM (inactive) | 33.9 µM (inactive) | 33.1 µM (inactive) | 10.2 µM (inactive) | 55.2 µM (inactive) | 27.4 µM (inactive) | 29.7 µM (inactive) | 30.3 µM (inactive) | > 100 µM (inactive) | 2.84 µM (inactive) | 5.01 µM (inactive) | 34.7 µM (inactive) | 29 µM (inactive) | 1.52 µM (inactive) | 29.1 µM (inactive) | 28.1 µM (inactive) | 8.17 µM (inactive)
Cc1cc(Cl)cc2c1NC(=O)C2(O)CC(=O)c1ccco1 (configuration not stated) | > 73.3 µM (inactive) | > 66.2 µM (inactive) | 52.4 µM (inactive) | 62.7 µM (inactive) | > 53.7 µM (inactive) | 55.1 µM (inactive) | 27.1 µM (inactive) | > 100 µM (inactive) | 12.3 µM (inactive) | > 100 µM (inactive) | > 85.1 µM (inactive) | 57 µM (inactive) | 0.92 µM (active) | 45.9 µM (inactive) | 10.4 µM (inactive) | > 100 µM (inactive) | 38.7 µM (inactive) | > 100 µM (inactive) | > 100 µM (inactive) | > 42 µM (inactive)
Nc1ccc(S(=O)(=O)Nc2cnc3c(Cl)cccc3n2)cc1 [CHLORSULFAQUINOXALINE] | 31.4 µM (inactive) | 274 µM (inactive) | 167 µM (inactive) | 131 µM (inactive) | 163 µM (inactive) | 181 µM (inactive) | 23.2 µM (inactive) | 163 µM (inactive) | 125 µM (inactive) | 222 µM (inactive) | 94.4 µM (inactive) | 82.2 µM (inactive) | 75.2 µM (inactive) | 344 µM (inactive) | 24.3 µM (inactive) | 92.3 µM (inactive) | 52.6 µM (inactive) | 197 µM (inactive) | 71.3 µM (inactive) | 84.9 µM (inactive)
C=CCN(CCN(CC=C)S(=O)(=O)c1ccc(C)cc1)S(=O)(=O)c1ccc(C)cc1 | > 100 µM (inactive) | > 100 µM (inactive) | > 100 µM (inactive) | > 100 µM (inactive) | > 100 µM (inactive) | > 100 µM (inactive) | > 100 µM (inactive) | > 100 µM (inactive) | > 100 µM (inactive) | – | > 100 µM (inactive) | > 100 µM (inactive) | > 100 µM (inactive) | > 100 µM (inactive) | > 100 µM (inactive) | > 100 µM (inactive) | > 100 µM (inactive) | > 100 µM (inactive) | 95.9 µM (inactive) | 55.1 µM (inactive)
CCOC(=O)C(CC(C)C)NC(=O)C(Cc1ccccc1)NC(=O)CNC(=O)OC(C)(C)C (stereo not drawn) (Boc-Gly-Phe-Leu-OEt; configuration not given here) | 34.8 µM (inactive) | 20 µM (inactive) | 17.2 µM (inactive) | 22.1 µM (inactive) | – | 16.3 µM (inactive) | 19 µM (inactive) | 17.3 µM (inactive) | 36.9 µM (inactive) | 22.3 µM (inactive) | 19.2 µM (inactive) | 25.8 µM (inactive) | 11.1 µM (inactive) | 19.7 µM (inactive) | 14.7 µM (inactive) | 31.6 µM (inactive) | 16.6 µM (inactive) | 21 µM (inactive) | 25.2 µM (inactive) | 18.2 µM (inactive)
